Entries after “also recorded” stand apart in the source; their conditions may differ.
Key:
Type in all cases: in vivo, rat
[1] = test system: mesenteric vascular bed of male obese ZSF1 rats; assay: Mesenteric vascular reactivity to acetylcholine and sodium nitroprusside after 26 weeks of treatment; conditions: 10 ug/kg/hour s.c., versus control; for Vasodilation induced by sodium nitroprusside (mesenteric vascular resistance, FIG. 3): sodium nitroprusside 0.5, 1.5, 5.0 ug/min
Description: After 26 weeks of treatment, animals were anesthetized and instrumented for assessment of heart performance, renal hemodynamics and mesenteric vascular reactivity. A PE-50 catheter was advanced via the carotid artery into the left ventricle and connected to a heart-performance analyzer (Micro-Med, Inc., Louisville, Ky.) for continuous measurement of ten time/pressure variables. A PE-50 catheter was inserted into the femoral artery and connected to a blood pressure analyzer (Micro-Med, Inc.) for measurement of arterial blood pressure. A PE-10 catheter was inserted into the left ureter for urine collection, and a flow probe (Transonic Systems, Inc., Ithaca, N.Y.) was placed on the left renal artery for determination of renal blood flow. An infusion of ^14C-inulin (0.035 uCi/20 ul saline/min) was initiated, and after 60 minutes, two 30-minute clearance periods were conducted. A mid-point blood sample (300 ul) for measurement of radioactivity was collected. Plasma and urine ^14C-inulin radioactivity were measured, and renal clearance of ^14C-inulin was calculated. A flow probe was placed on the mesenteric artery for determination of mesenteric blood flow, and a 32-gauge needle was inserted into the mesenteric artery and attached to a Y-connector for dual intramesenteric artery infusions (25 ul/min each). Angiotensin II (30 ng/min) plus methoxamine (3 ug/min) was delivered via one intramesenteric artery infusion line into the mesenteric vascular bed to the mesenteric vascular bed. […] Vascular resistances were calculated as arterial blood pressure divided by blood flow.
All values refer to means±SEM for 9 to 10 animals in each group. Statistical significance was calculated using either an unpaired Student's t-test or a 2-factor analysis of variance (repeated measures) followed by a Fisher's Least Significance Difference test if appropriate. […]

male ZSF1 rats = assay: Treatment of male ZSF1 rats for 24 weeks with 2-hydroxyestradiol or 2-methoxyestradiol; conditions: 10 ug/kg/hr, 28 weeks, versus control animals
male obese ZSF1 rats [2] = assay: Heart performance, arterial blood pressure and renal hemodynamics in anesthetized ZSF1 rats after 26 weeks of treatment; conditions: for Glomerular Filtration Rate / Renal Blood Flow / Renal Vascular Resistance: 26 weeks (approximately 6 months) of treatment; for Glomerular Filtration Rate: 14C-inulin clearance
Description: After 26 weeks of treatment, animals were anesthetized and instrumented for assessment of heart performance, renal hemodynamics and mesenteric vascular reactivity. A PE-50 catheter was advanced via the carotid artery into the left ventricle and connected to a heart-performance analyzer (Micro-Med, Inc., Louisville, Ky.) for continuous measurement of ten time/pressure variables. A PE-50 catheter was inserted into the femoral artery and connected to a blood pressure analyzer (Micro-Med, Inc.) for measurement of arterial blood pressure. A PE-10 catheter was inserted into the left ureter for urine collection, and a flow probe (Transonic Systems, Inc., Ithaca, N.Y.) was placed on the left renal artery for determination of renal blood flow. An infusion of ^14C-inulin (0.035 uCi/20 ul saline/min) was initiated, and after 60 minutes, two 30-minute clearance periods were conducted. A mid-point blood sample (300 ul) for measurement of radioactivity was collected. Plasma and urine ^14C-inulin radioactivity were measured, and renal clearance of ^14C-inulin was calculated. A flow probe was placed on the mesenteric artery for determination of mesenteric blood flow, and a 32-gauge needle was inserted into the mesenteric artery and attached to a Y-connector for dual intramesenteric artery infusions (25 ul/min each). Angiotensin II (30 ng/min) plus methoxamine (3 ug/min) was delivered via one intramesenteric artery infusion line into the mesenteric vascular bed to the mesenteric vascular bed. Next, vascular responses to increasing doses of acetylcholine (0.3, 1.0 and 3.0 ug/min, 5 minutes per dose) and sodium nitroprusside (0.5, 1.5 and 5.0 ug/min, 5 minutes per dose) were elicited by infusing these agents via the other intramesenteric artery infusion line into the mesenteric vascular bed. Vascular resistances were calculated as arterial blood pressure divided by blood flow.
(§1) All values refer to means±SEM for 9 to 10 animals in each group. Statistical significance was calculated using either an unpaired Student's t-test or a 2-factor analysis of variance (repeated measures) followed by a Fisher's Least Significance Difference test if appropriate. The criterion of significance was p<0.05.

male obese ZSF1 rats [3] = assay: Treatment of male obese ZSF1 rats for 26 weeks with 2-hydroxyestradiol: body weight, food intake, metabolic cage and plasma parameters
Description: Twenty 12-week-old male obese ZSF1 rats (Genetic Models Inc., Indianapolis, Ind.) were used. Obese ZSF1 rats were developed by crossing lean female Zucker Diabetic Fatty rats (ZDF +/fa) and lean male Spontaneously Hypertensive Heart Failure rats (SHHF/Mcc-fa^cp, +/cp). As recently described by Tofovic, S. P., et al., Renal Failure 22: 387 (2000) the disclosure of which is incorporated herein by reference, compared with several different rat strains including Wistar-Kyoto normotensive rats, spontaneously hypertensive rats and obese SHHF/Mcc-fa^cp rats, obese ZSF1 rats have the metabolic syndrome (i.e., hypertension, diabetes and hyperlipidemia), left ventricular dysfunction, and develop nephropathy as characterized by massive proteinuria, abnormal renal histopathology (glomerulosclerosis and severe tubulointerstitial and vascular changes) and reduced glomerular filtration rate. Thus, this rat strain develops obesity, the metabolic syndrome and the end-organ sequelae associated with the metabolic syndrome.
At baseline, animals were placed in metabolic cages and food intake, water intake, urine output and urinary excretion of proteins (bicinchoninic acid method) and glucose (Infinity™ Glucose Reagent, Sigma Diagnostics, St Louis, Mo.) were determined. Next, osmotic mini pumps infusing either vehicle (polyethylene glycol 400, 2.5 ul/hour) or 2-hydroxyestradiol (10 ug/kg/hour) were implanted subcutaneously (random assignment). Minipumps were replaced every 33 days. Metabolic cage studies were repeated 12 and 24 weeks after initiation of treatments. After 9 and 25 weeks of treatment, animals were fasted overnight, and blood samples (tail vein) for measurement of cholesterol were taken. Plasma samples were analyzed in duplicates for cholesterol levels (Sigma Diagnostics, St. Louis, Mo.). After 26 weeks of treatment, animals were fasted overnight, an oral glucose tolerance test was conducted and total glycated hemoglobin levels were determined (Sigma Diagnostics). Plasma glucose levels were measured with the Precision Q.I.D. Blood Glucose Test Strips kit (Medisense, Inc., Bedford, Mass.).
as §1

[4] = anesthetized, listed as 2-Hydroxyestradiol
[5] = Table 2, after approximately 6 months of treatment
[6] = 10 ug/kg/hour s.c., 12 weeks of treatment
[7] = 10 ug/kg/hour s.c., 24 weeks of treatment
[8] = Table 1, after approximately 6 months of treatment

With C[C@]12CC[C@@H]3c4cc(O)c(O)cc4CC[C@H]3[C@@H]1CC[C@@H]2O [2-hydroxyestradiol, estra-1,3,5 (10)-triene-2,3,1 7-triol (17β)] the “Decreases in mesenteric vascular resistance induced by acetylcholine (FIG. 2)” value ([1]; acetylcholine 0.3, 1.0, 3.0 ug/min) was “greater”, the “Vasodilation induced by sodium nitroprusside (mesenteric vascular resistance, FIG. 3)” value [1] was “non-significant effect” and the “Vasodilation induced by sodium nitroprusside (mesenteric vascular resistance, FIG. 3)” value ([1]; listed as 2-Hydroxyestradiol) was “only slightly (non-significantly) enhanced”. For the same compound, the “Glycated hemoglobin (HbA1c) (FIG. 14)” value (male ZSF1 rats) was “lower”, the “Mean arterial blood pressure” value (male obese ZSF1 rats [2]; 10 ug/kg/hour s.c., 26 weeks of treatment, anesthetized) was 122±5 mm Hg and the “Effects on heart performance in situ” value (male obese ZSF1 rats [2]; 10 ug/kg/hour s.c., chronic treatment (26 weeks), versus control) was “no effects”. For the same compound, the “Glomerular Filtration Rate” value (male obese ZSF1 rats [2]) was “did not affect”, the “Glomerular Filtration Rate” value (male obese ZSF1 rats [2]; listed as 2-Hydroxyestradiol) was 0.76 ± 0.09 ml/min/gram kidney and the “Renal Blood Flow” value (male obese ZSF1 rats [2]; anesthetized) was “did not affect”. The “Renal Vascular Resistance” value (male obese ZSF1 rats [2]; anesthetized) was “did not affect”, the “Renal Blood Flow” value (male obese ZSF1 rats [2]; [4]) was 3.3 ± 0.6 ml/min/gram kidney and the “Renal Vascular Resistance” value (male obese ZSF1 rats [2]; [4]) was 42 ± 7 mm Hg/ml/min/gram kidney. The “+dP/dtmax” value (male obese ZSF1 rats [2]; [5]) was 11,805 ± 943 mm Hg/sec, the “+dP/dtmax/Ventricular Peak Systolic Pressure” value (male obese ZSF1 rats [2]; [5]) was 69.9 ± 2.5 s⁻¹ and the “Duration of Contraction” value (male obese ZSF1 rats [2]; [5]) was 38.8 ± 3.5 ms. For the same compound, the “Duration of Relaxation” value (male obese ZSF1 rats [2]; [5]) was 96.3 ± 6.3 ms, the “Half-Time of Ventricular Relaxation” value (male obese ZSF1 rats [2]; [5]) was 49.1 ± 3.6 ms and the “Heart Rate” value (male obese ZSF1 rats [2]; [5]) was 352 ± 9 beats/min. For the same compound, the “Heart Rate × Ventricular Peak Systolic Pressure” value (male obese ZSF1 rats [2]; [5]) was 60,949 ± 4,237 [beats/min] × mm Hg, the “Mean Blood Pressure” value (male obese ZSF1 rats [2]; [5]) was 122 ± 5 mm Hg and the “Time Constant of Ventricular Relaxation” value (male obese ZSF1 rats [2]; [5]) was 16.7 ± 1.9 ms. The “Ventricular End Diastolic Pressure” value (male obese ZSF1 rats [2]; [5]) was 4.2 ± 1.0 mm Hg, the “Ventricular Minimum Diastolic Pressure” value (male obese ZSF1 rats [2]; [5]) was −1.4 ± 1.1 mm Hg and the “Ventricular Peak Systolic Pressure” value (male obese ZSF1 rats [2]; [5]) was 172 ± 9 mm Hg. The “−dP/dtmax” value (male obese ZSF1 rats [2]; [5]) was 6853 ± 382 mm Hg/sec, the Body weight (male obese ZSF1 rats [3]; 10 ug/kg/hour s.c. osmotic minipump, 12 weeks of treatment, mean±SEM) was 545±13 grams and the Body weight (male obese ZSF1 rats [3]; 10 ug/kg/hour s.c. osmotic minipump, 26 weeks of treatment, mean±SEM) was 571±13 grams. For the same compound, the “Hypercholesterolemia (plasma cholesterol)” value (male obese ZSF1 rats [3]; 10 ug/kg/hour s.c., 9 weeks of treatment, fasted overnight) was 151±9 mg cholesterol/100 ml, the Food intake (male obese ZSF1 rats [3]; [6]) was 26.4±1.3 grams/day and the Glucosuria (male obese ZSF1 rats [3]; [6]) was 0.2±0.2 grams glucose/day. The Polydipsia (male obese ZSF1 rats [3]; [6]) was 40.1±4.0 mls of water consumed/day, the Polyuria (male obese ZSF1 rats [3]; [6]) was 23.6±2.4 mls of urine/day and the Food intake (male obese ZSF1 rats [3]; [7]) was 36.6±0.9 grams/day. The Glucosuria (male obese ZSF1 rats [3]; [7]) was 1.7±0.5 grams glucose/day, the Polydipsia (male obese ZSF1 rats [3]; [7]) was 67.4±4.5 mls of water consumed and the Polyuria (male obese ZSF1 rats [3]; [7]) was 45.6±3.8 mls of urine/day. The “Hypercholesterolemia (plasma cholesterol)” value (male obese ZSF1 rats [3]; 10 ug/kg/hour s.c., 25 weeks of treatment, fasted overnight) was 247±28 mg cholesterol/100 ml, the Glycated hemoglobin (male obese ZSF1 rats [3]; 10 ug/kg/hour s.c., 26 weeks into the study) was 3.8±0.7% and the “Oral glucose tolerance test: plasma glucose 2 hours after an oral dose of 2 grams of glucose per kg body weight” value (male obese ZSF1 rats [3]; 10 ug/kg/hour s.c., 26 weeks of treatment, fasted overnight) was 265±13 mg/100 ml. The “Progression of proteinuria (urinary protein excretion, FIG. 1)” value (male obese ZSF1 rats [3]; 10 ug/kg/hour s.c., baseline, 12 and 24 weeks, versus vehicle) was “significant (p<0.001) effect of time and treatment; also recorded: attenuated the progression of proteinuria”, the “Food intake” value (male obese ZSF1 rats [3]; [8]) was 36.6 ± 0.9 grams and the “Glycated hemoglobin” value (male obese ZSF1 rats [3]; [8]) was 3.8 ± 0.7%. The “Plasma Cholesterol” value (male obese ZSF1 rats [3]; [8]) was 247 ± 28 mg/100 ml, the “Plasma Glucose 2 Hours After Oral Glucose Load of 2 g/kg” value (male obese ZSF1 rats [3]; [8]) was 265 ± 13 mg/100 ml and the “Urinary Glucose Excretion” value (male obese ZSF1 rats [3]; [8]) was 1.7 ± 0.5 grams/day. The “Urinary Protein Excretion” value (male obese ZSF1 rats [3]; [8]) was 333 ± 21 mg/day, the “Urine Volume” value (male obese ZSF1 rats [3]; [8]) was 45.6 ± 3.8 mL/day and the “Water Intake” value (male obese ZSF1 rats [3]; [8]) was 67.4 ± 4.5 mL/day. The “Body weight” value (male obese ZSF1 rats [3]; Table 1, after approximately 6 months of treatment, mean ± SEM) was 571 ± 11 grams.
